Data: patent US11419826B2, “Surface-modified mesoporous silica nanoparticle for blood-brain barrier penetration,tumor targeting and cancer metastasis treatment, methods of production and uses thereof” (NANO TARGETING & THERAPY BIOPHARMA INC., priority 2019, dated 2022)

Tests used:
U87-LUC glioma cells = assay: U87-LUC orthotopic glioma xenograft mouse model; format: in vivo; details: Dox 10 mg/kg i.v. every 4 days for 3 times
Description: U87-LUC glioma cells were cultured at 37° C. in a humidified 5% CO2 atmosphere in minimum essential median (MEM) supplemented with 10% fetal bovine serum and 1% penicillin/streptomycin (Invitrogen). Cells were harvested by trypsinization, washed once with phosphate-buffered saline (PBS), and re-suspended (1×10^5 cell/μL) in MEM for subsequent implantation into the striatum of mouse brains. Pathogen-free male NU/NU mice (5 to 7 weeks old) were purchased from BioLASCO (Taiwan). Mice were housed and maintained in a controlled environment and all procedures were performed in accordance with the experimental animal care guidelines of the Animal Committee of Chang Gung University. To implant U87-LUC tumor cells, animals were anesthetized with 2% isoflurane gas and immobilized on a stereotactic frame. […] The growth of the brain tumor was monitored by IVIS and MRI.
Dox is a well-known anti-cancer drug approved for treatment of multiple cancers. […] To evaluate the efficacy of Dox@MSN-PEG+TA anti-brain tumor in vivo, the U87-LUC brain cells were implanted orthotopically into nude mice to serve as the U87-LUC xenograft mouse model; U87-LUC cells can express luciferase for quantification of tumor cells in vivo. […] The distribution of MSN-PEG+TA and Dox@MSN-PEG+TA in brain tissue and tumor were assessed from the tumor sections from nanoparticle treated mice. […]

[1] = Pharmacokinetics and quantification of Dox accumulation in plasma and brain; details: single i.v. dose, Dox 7.5 mg/kg; after 15 minutes
Description: Healthy balb/c mice were single dose intravenously injected with Dox or Dox@NTT0_18 at 7.5 mg/kg. To determine the Dox concentration in plasma and brain, blood samples were taken at 15, 30, 60, 180, 360 and 1440 minutes after injection, and after the blood samples were taken, each animal was sacrificed and perfused with PBS to obtain the brain. Dox was extracted from the samples (plasma and brain respectively) for the determination of dox concentration with a spectrophotometer.
Mice received a single dose of Dox or Dox@NTT0_18 (MSN-PEG+TA-loaded Dox) through intravenous injection (all at Dox dose 7.5 mg/kg). To determine the Dox concentration in plasma and brain, blood samples were taken at 15, 30, 60, 180, 360 and 1440 minutes after injection and animals were sacrificed and perfused with PBS at each time point. Dox was extracted from plasma and brain and the Dox concentration was measured using a spectrophotometer. The concentration versus time curves of Dox in plasma with and without MSN-PEG+TA encapsulated was also established.

## COc1cccc2c1C(=O)c1c(O)c3c(c(O)c1C2=O)C[C@@](O)(C(=O)CO)C[C@@H]3O[C@H]1C[C@H](N)[C@H](O)[C@H](C)O1 [Dox, doxorubicin]
U87-LUC glioma cells
  toxicity / body weight of treated mice: causes death of the host
U87-LUC glioma cells; during the treatment period
  tumor size: shrunk during the treatment period
[1]
  Dox concentration in plasma: lower than 0.2 μg/mL
